For one molecule, IC50 results are on record in ChEMBL document CHEMBL1141825, “Chemistry of verongida sponges. 9.1 secondary metabolite composition of the caribbean sponge aplysina cauliformis” (J Nat Prod, 1999).

By IC50 is commonly meant the concentration at which inhibition is half-maximal.

≈ marks a conversion by molar mass, not a printed value.

For the experiment, the system named is HeLa. Briefly: Antiproliferative activity against human HeLa cells assessed as [3H]thymidine incorporation after 72 hrs by miniaturized, improved, nucleic acid precursor incorporation assay. It is filed as functional, cell-based. In general terms: Dividing cells build labelled thymidine or BrdU into new DNA.

For `COC(=O)NCC(=O)CCNC(=O)C1=NO[C@]2(C=C(Br)C(OC)=C(Br)[C@@H]2O)C1`, the IC50 worked out at 50 µg/mL (≈ 95.2 µM).
